Reference: US20250360143A1, “COMPOSITIONS AND METHODS FOR PHA[…] OF STROKE AND […] REPERFUSION INJURY” (priority 2022, published 2025)
Counter-ions that a name gives are not always drawn. Like-named read-outs stand apart in the source and are kept apart here.

Experiments:
Experiment in all cases: cell-based
hP2X1R = target: T1, hP2X1R (Homo sapiens, UniProt P51575); conditions: for inhibition at 30 µM: CHO-K1, percent inhibition at 30 μM, agonist α,β-MeATP 1.0 μM, read-out: hP2X1R % inhib.
T1 construct: expressed in transfected cells; host or cells: CHO-K1
T1 sequence (P51575 1-399): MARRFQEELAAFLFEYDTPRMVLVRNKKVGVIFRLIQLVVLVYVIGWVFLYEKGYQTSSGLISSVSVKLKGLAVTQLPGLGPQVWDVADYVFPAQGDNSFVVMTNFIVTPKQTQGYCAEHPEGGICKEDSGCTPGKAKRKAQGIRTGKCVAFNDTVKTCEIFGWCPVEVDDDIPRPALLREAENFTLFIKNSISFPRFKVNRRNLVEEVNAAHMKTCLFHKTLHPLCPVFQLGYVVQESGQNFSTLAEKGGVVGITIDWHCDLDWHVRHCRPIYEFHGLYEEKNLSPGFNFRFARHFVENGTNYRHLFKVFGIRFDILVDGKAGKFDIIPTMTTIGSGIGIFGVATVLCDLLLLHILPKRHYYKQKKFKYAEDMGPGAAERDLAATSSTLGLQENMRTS

hP2X4R = target: T2, hP2X4R (Homo sapiens, UniProt Q99571); assay type: cell-based; conditions: for inhibition at 30 µM: HEK293, read-out: hP2X4R % inhib.
T2 construct: expressed in transfected cells; host or cells: HEK-293
T2 sequence (Q99571 1-388): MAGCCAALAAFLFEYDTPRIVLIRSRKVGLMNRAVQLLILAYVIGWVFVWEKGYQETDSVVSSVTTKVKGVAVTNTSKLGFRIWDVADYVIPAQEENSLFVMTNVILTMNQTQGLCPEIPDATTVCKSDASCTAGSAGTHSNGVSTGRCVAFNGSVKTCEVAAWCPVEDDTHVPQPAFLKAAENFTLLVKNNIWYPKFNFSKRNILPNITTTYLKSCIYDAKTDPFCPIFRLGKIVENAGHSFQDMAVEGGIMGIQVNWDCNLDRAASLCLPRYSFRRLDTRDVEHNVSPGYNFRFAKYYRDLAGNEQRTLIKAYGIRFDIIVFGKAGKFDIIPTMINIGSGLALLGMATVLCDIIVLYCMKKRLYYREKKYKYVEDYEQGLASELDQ

hP2X3R = target: T3, hP2X3R (Homo sapiens, UniProt P56373); assay type: cell-based; conditions: for inhibition at 30 µM: CHO-K1, read-out: hP2X3R % inhib.
T3 construct: expressed in transfected cells; host or cells: CHO-K1
T3 sequence (P56373 1-397): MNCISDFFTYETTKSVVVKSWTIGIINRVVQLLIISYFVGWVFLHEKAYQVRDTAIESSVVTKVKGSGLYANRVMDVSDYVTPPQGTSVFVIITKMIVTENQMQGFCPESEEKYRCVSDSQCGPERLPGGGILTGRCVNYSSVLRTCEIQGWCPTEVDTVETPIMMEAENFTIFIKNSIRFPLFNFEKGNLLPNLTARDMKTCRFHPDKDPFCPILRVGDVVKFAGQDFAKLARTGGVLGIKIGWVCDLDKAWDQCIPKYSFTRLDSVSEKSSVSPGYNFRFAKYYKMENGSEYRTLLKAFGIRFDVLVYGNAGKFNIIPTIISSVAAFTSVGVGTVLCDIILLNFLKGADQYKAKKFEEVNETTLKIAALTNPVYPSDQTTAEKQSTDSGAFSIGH

hP2X2/3R = target: T4, hP2X2/3R (Homo sapiens, UniProt P56373+Q9UBL9); assay type: cell-based; conditions: for inhibition at 30 µM: CHO-K1, read-out: hP2X2/3R % inhib.
T4 construct: expressed in transfected cells; host or cells: CHO-K1
T4 sequence (Q9UBL9 1-471): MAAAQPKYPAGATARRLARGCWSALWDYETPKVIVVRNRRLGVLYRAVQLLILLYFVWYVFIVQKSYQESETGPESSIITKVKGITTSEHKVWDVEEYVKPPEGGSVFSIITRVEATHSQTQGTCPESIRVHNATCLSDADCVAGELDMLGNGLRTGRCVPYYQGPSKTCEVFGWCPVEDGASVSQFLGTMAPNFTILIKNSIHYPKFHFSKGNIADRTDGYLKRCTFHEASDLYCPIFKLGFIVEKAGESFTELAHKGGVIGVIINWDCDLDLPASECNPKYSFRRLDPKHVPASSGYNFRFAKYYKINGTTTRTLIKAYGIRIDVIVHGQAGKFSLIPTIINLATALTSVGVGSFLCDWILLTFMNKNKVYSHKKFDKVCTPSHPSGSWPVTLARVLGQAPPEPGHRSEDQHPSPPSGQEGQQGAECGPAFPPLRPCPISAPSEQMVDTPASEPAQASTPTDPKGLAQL
T4 sequence (P56373 1-397): T3 sequence (P56373 1-397)

[1] = percent inhibition at 30 μM, agonist α,β-MeATP 1.0 μM
[2] = percent inhibition at 30 μM, agonist α,β-MeATP 5.0 μM

## CCN(CC)CC.[N-]=[N+]=NCc1ccc2ccc3c(c2c1)NC(=O)CC(=O)N3c1cccc(-c2noc(=S)[nH]2)c1 [Compound 21g, 10-(azidomethyl)-5-(3-(5-thioxo-4,5-dihydro-1,2,4-oxadiazol-3-yl)phenyl)-1,5-dihydro-2H-naphtho[1,2-b][1,4]diazepine-2,4(3H)-dione triethylamine salt]
hP2X1R
  hP2X1R % inhib.: 8%
hP2X4R
  hP2X4R % inhib.: 6%
hP2X3R
  hP2X3R % inhib.: 13%
hP2X2/3R
  hP2X2/3R % inhib.: 4%

## CCN(CC)CC.O=C1CC(=O)N(c2cccc(-c3noc(=S)[nH]3)c2)c2cc(-c3ccccc3)c3ccccc3c2N1 [Compound 211, 7-Phenyl-5-(3-(5-thioxo-4,5-dihydro-1,2,4-oxadiazol-3-yl)phenyl)-1,5-dihydro-2H-naphtho[1,2-b][1,4]diazepine-2,4(3H)-dione triethylamine salt]
hP2X1R
  hP2X1R % inhib.: 14%
hP2X4R
  IC50: 20.7 µM
hP2X3R
  hP2X3R % inhib.: 11%
hP2X2/3R
  hP2X2/3R % inhib.: 10%

## Cc1cc(-c2noc(=S)[nH]2)cc(N2C(=O)CC(=O)Nc3c2ccc2ccccc32)c1 [Compound 21r, 5-(3-Methyl-5-(5-thioxo-4,5-dihydro-1,2,4-oxadiazol-3-yl)phenyl)-1,5-dihydro-2H-naphtho[1,2-b][1,4]diazepine-2,4(3H)-dione]
hP2X1R
  inhibition at 30 µM: 16%
hP2X4R; agonist CTP 10 μM (~EC80)
  IC50: 14 µM
hP2X3R; [1]
  inhibition at 30 µM: 12%
hP2X2/3R; [2]
  inhibition at 30 µM: 5%

## O=C1CC(=O)N(c2cccc(-c3noc(=S)[nH]3)c2)c2cc(C#Cc3cccnc3)c3ccccc3c2N1 [Compound 21n, 7-(Pyridin-3-ylethynyl)-5-(3-(5-thioxo-4,5-dihydro-1,2,4-oxadiazol-3-yl)phenyl)-1,5-dihydro-2H-naphtho[1,2-b][1,4]diazepine-2,4(3H)-dione]
hP2X1R
  inhibition at 30 µM: 9%
hP2X4R
  inhibition at 30 µM: 34%
hP2X3R; [1]
  inhibition at 30 µM: 9%
hP2X2/3R; [2]
  inhibition at 30 µM: 13%

## CCCCC#Cc1cc2c(c3ccccc13)NC(=O)CC(=O)N2c1cccc(-c2noc(=S)[nH]2)c1 [Compound 21o, 7-(Hex-1-yn-1-yl)-5-(3-(5-thioxo-4,5-dihydro-1,2,4-oxadiazol-3-yl)phenyl)-1,5-dihydro-2H-naphtho[1,2-b][1,4]diazepine-2,4(3H)-dione]
hP2X1R
  inhibition at 30 µM: 16%
hP2X4R
  inhibition at 30 µM: 15%
hP2X3R; [1]
  inhibition at 30 µM: 18%
hP2X2/3R; [2]
  inhibition at 30 µM: 1%

## CCN(CC)CC.[N-]=[N+]=NCc1ccc2c3c(ccc2c1)N(c1cccc(-c2noc(=S)[nH]2)c1)C(=O)CC(=O)N3 [Compound 21j, 9-(Azidomethyl)-5-(3-(5-thioxo-4,5-dihydro-1,2,4-oxadiazol-3-yl)phenyl)-1,5-dihydro-2H-naphtho[1,2-b][1,4]diazepine-2,4(3H)-dione triethylamine salt]
hP2X1R
  hP2X1R % inhib.: −5%
hP2X4R
  IC50: 21.3 µM
  hP2X4R inhibitory activity relative to 22a, in words: destabilizing
hP2X3R
  hP2X3R % inhib.: 0%
hP2X2/3R
  hP2X2/3R % inhib.: 2%

## O=C1CC(=O)N(c2cc(-c3noc(=S)[nH]3)ccn2)c2ccc3ccccc3c2N1 [Compound 21s, 5-(4-(5-Thioxo-4,5-dihydro-1,2,4-oxadiazol-3-yl)pyridin-2-yl)-1,5-dihydro-2H-naphtho[1,2-b][1,4]diazepine-2,4(3H)-dione triethylamine salt]
hP2X1R
  inhibition at 30 µM: 18%
hP2X4R
  hP2X4R inhibitory activity relative to 22a, in words: reduce
hP2X4R; agonist CTP 10 μM (~EC80)
  IC50: 13.5 µM
hP2X3R; [1]
  inhibition at 30 µM: 18%
hP2X2/3R; [2]
  inhibition at 30 µM: -6%

## 2′,3′-O-Trinitrophenyl-adenosine-5′-triphosphate [TNP-ATP, reference compound]
hP2X1R
  IC50: 120 nM
hP2X3R
  IC50: 18 nM
hP2X2/3R
  IC50: 64 nM

## CC(=O)NCc1ccc2ccc3c(c2c1)NC(=O)CC(=O)N3c1cccc(-c2noc(=S)[nH]2)c1.CCN(CC)CC [Compound 21i, N-((2,4-Dioxo-5-(3-(5-thioxo-4,5-dihydro-1,2,4-oxadiazol-3-yl)phenyl)-2,3,4,5-tetrahydro-1H-naphtho[1,2-b][1,4]diazepin-10-yl)methyl) acetamide triethylamine salt]
hP2X4R
  hP2X4R inhibitory activity relative to 22a, in words: inactive
hP2X4R; percent inhibition at 30 μM, agonist CTP 10 μM
  hP2X4R % inhib.: 16%
hP2X3R; [1]
  hP2X3R % inhib.: 9%
hP2X2/3R; [2]
  hP2X2/3R % inhib.: −5%

## O=C1CC(=O)N(c2cccc(-c3noc(=S)[nH]3)c2)c2cc(C#Cc3ccccc3)c3ccccc3c2N1 [Compound 21m, 7-(Phenylethynyl)-5-(3-(5-thioxo-4,5-dihydro-1,2,4-oxadiazol-3-yl)phenyl)-1,5-dihydro-2H-naphtho[1,2-b][1,4]diazepine-2,4(3H)-dione]
hP2X1R
  inhibition at 30 µM: 14%
hP2X4R
  inhibition at 30 µM: -4%
hP2X3R; [1]
  inhibition at 30 µM: 7%
hP2X2/3R; [2]
  inhibition at 30 µM: 5%

## CCN(CC)CC.NCc1ccc2ccc3c(c2c1)NC(=O)CC(=O)N3c1cccc(-c2noc(=S)[nH]2)c1 [Compound 21q, 10-(Aminomethyl)-5-(3-(5-thioxo-4,5-dihydro-1,2,4-oxadiazol-3-yl)phenyl)-1,5-dihydro-2H-naphtho[1,2-b][1,4]diazepine-2,4(3H)-dione triethylamine salt]
hP2X1R
  hP2X1R % inhib.: 8%
hP2X4R
  hP2X4R % inhib.: 9%
hP2X3R
  hP2X3R % inhib.: 9%
hP2X2/3R
  hP2X2/3R % inhib.: 0%

## CCc1cc2c(c3ccccc13)NC(=O)CC(=O)N2c1cccc(-c2noc(=S)[nH]2)c1 [Compound 21p, 7-Ethyl-5-(3-(5-thioxo-4,5-dihydro-1,2,4-oxadiazol-3-yl)phenyl)-1,5-dihydro-2H-naphtho[1,2-b][1,4]diazepine-2,4(3H)-dione triethylamine salt]
hP2X1R
  inhibition at 30 µM: 6%
hP2X4R; agonist CTP 10 μM (~EC80)
  IC50: 5.13 µM
hP2X3R; [1]
  inhibition at 30 µM: 6%
hP2X2/3R; [2]
  inhibition at 30 µM: 10%

## CCN(CC)CC.[N-]=[N+]=NCc1ccc2c(Br)cc3c(c2c1)NC(=O)CC(=O)N3c1cccc(-c2noc(=S)[nH]2)c1 [Compound 21h, 10-(azidomethyl)-7-bromo-5-(3-(5-thioxo-4,5-dihydro-1,2,4-oxadiazol-3-yl)phenyl)-1,5-dihydro-2H-naphtho[1,2-b][1,4]diazepine-2,4(3H)-dione triethylamine salt]
hP2X1R
  hP2X1R % inhib.: −13%
hP2X4R
  hP2X4R % inhib.: 8%
  hP2X4R inhibitory activity relative to 22a, in words: inactive
hP2X3R
  hP2X3R % inhib.: 15%
hP2X2/3R
  hP2X2/3R % inhib.: −4%

## O=C1CC(=O)N(c2cccc(-c3noc(=S)[nH]3)n2)c2ccc3ccccc3c2N1 [Compound 21v, 5-(6-(5-Thioxo-4,5-dihydro-1,2,4-oxadiazol-3-yl)pyridin-2-yl)-1,5-dihydro-2H-naphtho[1,2-b][1,4]diazepine-2,4(3H)-dione triethylamine salt]
hP2X1R
  inhibition at 30 µM: ≤ 31%
hP2X4R
  hP2X4R inhibitory activity relative to 22a, in words: reduce
hP2X4R; agonist CTP 10 μM (~EC80)
  IC50: 6.48 µM
hP2X3R; [1]
  inhibition at 30 µM: 17%
hP2X2/3R; [2]
  inhibition at 30 µM: 15%

## CCN(CC)CC.Cc1ccc2c(Br)cc3c(c2c1)NC(=O)CC(=O)N3c1cccc(-c2noc(=S)[nH]2)c1 [Compound 21e, 7-Bromo-10-methyl-5-(3-(5-thioxo-4,5-dihydro-1,2,4-oxadiazol-3-yl)phenyl)-1,5-dihydro-2H-naphtho[1,2-b][1,4]diazepine-2,4(3H)-dione triethylamine salt]
hP2X1R
  hP2X1R % inhib.: −2%
hP2X4R
  IC50: 11.8 µM
  hP2X4R inhibitory activity relative to 22a, in words: only moderately reduced activity
hP2X3R
  hP2X3R % inhib.: 17%
hP2X2/3R
  hP2X2/3R % inhib.: −5%
